{"source": "patent US20250049753A1", "about": "“METHODS AND COMPOSITIONS FOR DELIVERING MYCOPHENOLIC ACID ACTIVE AGENTS TO NON-HUMAN MAMMALS” (Okava Pharmaceuticals, Inc., priority 2017, published 2025)", "assay": "Study 1: single-dose cross-over PK, oral vs intracolonic Na.MPA", "assay_type": "in vivo, male beagle dogs", "conditions": "for dose-normalized AUClast MPA: fasted, average", "method": "Two single dose cross-over studies were conducted using a canine model (male beagle dogs) to evaluate the potential of an enteric coated-extended release sodium mycophenolate formulation (“EC-ER-Na.MP”). In a first cross-over study, the pharmacokinetics of MPA and its metabolites (MPAG and AcMPAG) following oral dosing of 180 mg of EC-Na.MPA was compared with intracolonic (IC) administration of Na.MPA. In a second cross-over study, 270 mg of an EC-ER-Na.MPA formulation was administered in the both fed and fasted states and pharmacokinetics were compared with oral administration of 10 mg/kg MMF in the fasted state. Both studies were conducted by Absorption Systems (San Diego, CA).\nStudy 1: For three days prior to IC dosing, dogs (n=5) were offered a soft diet consisting of canned wet food (Pedigree® Choice Cuts). Otherwise, the dogs were offered their standard diet (LabDiet 5006 laboratory canine diet). Prior to each dosing event, the dogs were fasted for 12 hours prior to dosing until 4 hours post-dose, when food was returned. Animals had free access to water throughout the study. Prior to IC dosing, each dog was given a non-stimulant enema approximately 1 hour prior to dosing to remove feces from the colon. Prior to PO dosing, each dog (n=5) was pre-treated with an intramuscular dose of pentagastrin (6 μg/kg) approximately 30 minutes prior to dosing. Capsules were administered by placement in the back of the throat followed by a 10 mL flush with water.\nEach dog received a total dose of 180 mg of MPA for each dose. For IC dosing, MPA was delivered as a solution via an endoscope, and for PO dosing each dog received a single Myfortic® 180 mg enteric coated capsule. Following administration, blood samples were collected up to 24 hours post-dose. Plasma concentrations of MPA, MPAG, and AcMPAG were determined with a qualified LC-MS/MS method, and pharmacokinetic parameters were determined with WinNonlin v.6.4 software.", "note": "Where “and” joins values, the source holds several entries; their conditions need not be identical. Identical values can stand only once."}
{"compound": "COc1c(C)c2c(c(O)c1C/C=C(\\C)CCC(=O)O)C(=O)OC2", "note": "[MPA, Mycophenolic acid]", "values": [{"measurement": "dose-normalized AUClast MPA", "setting": "IC 180 mg/dog", "value": "1817 ± 925 kg·ng·h/mL/mg and 1817 kg·ng·h/mL/mg"}, {"measurement": "dose-normalized AUClast MPA", "setting": "PO 180 mg/dog", "value": "2234 ± 799 kg·ng·h/mL/mg and 2234 kg·ng·h/mL/mg"}, {"measurement": "systemic exposure to MPA following IC and PO dosing", "setting": "based on average values", "value": "similar"}, {"measurement": "rate of MPA absorption, IC in comparison to PO dose", "setting": "dog, in vivo, po", "value": "more rapidly absorbed following IC dosing"}]}
